Data on four molecules can be found in patent publication US20080076183A1, “Polysaccharide-peptide conjugates for use as thrombin substrates” (Dade Behring Marburg GmbH, priority 2006, published 2008).

A word on the Km: it is the concentration of substrate that gives half-maximal velocity.

Test [1] deals with T1, thrombin (Homo sapiens, UniProt P00734). The experiment in a line: Thrombin generation test / determination of the endogenous thrombin potential in defibrinated platelet-poor plasma. The test is classed as biochemical. To be noted: for course of substrate conversion curve after termination of thrombin formation and inhibition: extinction at 405 nm; for reaction kinetics / substrate consumption in a thrombin generation test: compared with H-β-Ala-Gly-Arg-pNA and dextran-β-Ala-Gly-Arg-pNA. The method, then: The thrombin generation was started by addition of 30 μl of Innovin® (reagent comprising recombinant human tissue factor and a mixture of synthetic phospholipids; Dade Behring Marburg GmbH, Germany) and 15 μl of CaCl2 [250 mM]. Measurement was started simultaneously. The change in extinction was monitored for at least 20 minutes in a Behring coagulation system BCS® system (Dade Behring Marburg GmbH, Marburg, Germany) at a wavelength of λ=405 nm (see FIG. 2).
For comparison purposes, the determination of the endogenous thrombin potential was carried out in parallel using the uncoupled substrate H-β-Ala-Gly-Arg-pNA. The substrate solution used for this contained 1 mM H-β-Ala-Gly-Arg-pNA (see FIG. 1).

Test [2] has as its target T1, thrombin. The experiment in a line: Kinetic properties of thrombin substrates (Km, Vmax, Kcat, Kcat/Km).

Non-standard residues stand in square brackets, D forms with d. Residues, ends and D or L forms follow the SMILES beside them. *: point of attachment. pNA = O=[N+]([O-])c1ccc(N*)cc1; βAla = NCCC(=O)O

Turning to Dextran-β-Ala-Gly-Arg-pNA, the “course of substrate conversion curve after termination of thrombin formation and inhibition” value on thrombin [1] (plasma sample) is “reaches a plateau phase”.
On to Dextran-D-CHG-Gly-Arg-pNA, for which the “reaction kinetics / substrate consumption in a thrombin generation test” value at thrombin [1] is “substrate consumption rapidly occurs”.
Dextran-D-CHG-Ala-Arg-pNA: at thrombin [1], the “reaction kinetics / substrate consumption in a thrombin generation test” value was “substrate consumption rapidly occurs”.
As to `N=C(N)NCCC[C@H](NC(=O)CNC(=O)CCN)C(=O)Nc1ccc([N+](=O)[O-])cc1` [H-β-Ala-Gly-Arg-pNA 2AcOH] (H-[βAla]-Gly-Arg-pNA), at thrombin [1] (plasma sample), the “cleavage by α2-macroglobulin-bound thrombin” value was “cleavage of the small molecular weight peptide substrate by α2-macroglobulin-bound thrombin”; the “course of substrate conversion curve after termination of thrombin formation and inhibition” value is “changes to a uniform, steady and linear increase, instead of reaching a plateau phase”. In addition, the Km on thrombin [2] (Michaelis constant, substrate affinity to thrombin) was 2200 µM. Moreover, the Vmax on thrombin [2] (maximum reaction rate) is 16 U. In addition, the Kcat at thrombin [2] (turnover number) amounted to 17.4 s⁻¹.
